# Assay results published in patent US10206902B2, “Mono- or di-substituted indoles as dengue viral replication inhibitors” (priority 2014, dated 2019).
# Tests used:
# Assay type in all cases: cell-based
# DENV-2 NGC-Tongalike = experiment: Tetravalent RT-qPCR assay Protocol B, serotype 2; settings: Dengue virus, DENV2, Vero, 96 h
# Method: (§1) Vero cells (4×10^4) were seeded in 96-well plates. […] Following a 2 hour incubation period, the cell monolayer was washed 3 times with assay medium to remove residual, non-adsorbed virus and cultures were further incubated for either 4 days (DENV-2 NGC-Tongalike) or 7 days (DENV-1 Djibouti strain D1/H/IMTSSA/98/606, DENV-3 strain H87 prototype, DENV-4 strain H241′) in the presence of the inhibitor. Supernatant was harvested and viral RNA load was determined by real-time quantitative RT-PCR. The 50% effective concentration (EC50), which is defined as the compound concentration that is required to inhibit viral RNA replication by 50%, was determined using logarithmic interpolation (Tables 7 and 8). RNA was isolated from 100 μL supernatant with the NucleoSpin 96 Virus kit (Filter Service, Duren, Germany) as described by the manufacturer. The sequences of the TaqMan primers (DENV-For, DENV-Rev; Table 5) and TaqMan probes (DENV-Probe Table 5) were selected from non-structural gene 3 (NS3) or NS5, of the respective flaviviruses using Primer Express software (version 2.0; Applied Biosystems, Lennik, Belgium). The TaqMan probe was fluorescently labelled with 6-carboxyfluorescein (FAM) at the 5′ end as the reporter dye, and with minor groove binder (MGB) at the 3′ end as the quencher (Table 5). One-step, quantitative RT-PCR was performed in a total volume of 25 μL, containing 13.9375 μL H2O, 6.25 μL master mix (Eurogentec, Seraing, Belgium), 0.375 μL forward primer, 0.375 μL reverse primer, 1 μL probe, 0.0625 μL reverse transcriptase (Eurogentec) and 3 μL sample. RT-PCR was performed using the ABI 7500 Fast Real-Time PCR System (Applied Biosystems, Branchburg, N.J., USA) using the following conditions: 30 min at 48° C. and 10 min at 95° C., followed by 40 cycles of 15 s at 95° C. and 1 min at 60° C. The data was analyzed using the ABI PRISM 7500 SDS software (version 1.3.1; Applied Biosystems). For absolute quantification, standard curves were generated using 10-fold dilutions of template preparations of known concentrations.
# DENV-3 strain H87 = experiment: Tetravalent RT-qPCR assay Protocol A, serotype 3; settings: Dengue virus, DENV3, 72 h, RT-qPCR serotype 3 H87, Vero cells, day 3
# Method: (§2) The antiviral activity of the compounds of the invention was tested against DENV-1 strain TC974#666 (NCPV), DENV-2 strain 16681, DENV-3 strain H87 (NCPV) and DENV-4 strains H241 (NCPV) and EDEN (SG/06K2270DK1/2005; GenBank accession number QG398256) in a RT-qPCR assay. Therefore, Vero cells were infected with either DENV-1, or -2, or -3, or -4 in the presence or absence of test compounds. At day 3 post-infection, the cells were lysed and cell lysates were used to prepare cDNA of both a viral target (the 3′UTR of DENV; table 2) and a cellular reference gene (β-actin, table 2). Subsequently, a duplex real time PCR was performed on a Lightcycler480 instrument. The generated Cp value is inversely proportional to the amount of RNA expression of these targets. Inhibition of DENV replication by a test compound result in a shift of Cp's for the 3′UTR gene. On the other hand, if a test compound is toxic to the cells, a similar effect on β-actin expression will be observed. The comparative ΔΔCp method is used to calculate EC50, which is based on the relative gene expression of the target gene (3′UTR) normalized with the cellular housekeeping gene (β-actin). In addition, CC50 values were determined based on the Cp values acquired for the housekeeping gene β-actin.
# (§3) The culture medium consisted of minimal essential medium supplemented with 2% of heat-inactivated fetal calf serum, 0.04% gentamycin (50 mg/mL) and 2 mM of L-glutamine. Vero cells, obtained from ECACC, were suspended in culture medium and 75 μL/well was added in 96-well plates (10000 cells/well), which already contain the antiviral compounds. Typically, these plates contain a 4-fold serial dilution of 9 dilution steps of the test compound at 200 times the final concentration in 100% DMSO (500 nL; final concentration range: 25 μM-0.00038 μM). In addition, each plate contains wells which are assigned as virus controls (containing cells and virus in the absence of compound) and cell controls (containing cells in the absence of virus and compound). Once the cells were added in the plates, the plates were incubated in a fully humidified incubator (37° C., 5% CO2) until the next day. Then, DENV-1 strain TC974#666, DENV-2 strain 16681, DENV-3 strain H87 or DENV-4 strains H241 or EDEN were added. […] In parallel, 25 μL of culture medium was added to the cell controls. Next, the plates were incubated for 3 days in a fully humidified incubator (37° C., 5% CO2). After 3 days, the supernatant was removed from the wells and the cells were washed twice with ice-cold PBS (˜100 μL). The cell pellets within the 96-well plates were stored at −80° C. for at least 1 day. Next, RNA was extracted using the Cells-to-CT™ lysis kit, according to the manufacture's guideline (Applied Biosystems). The cell lysates can be stored at −80° C. or immediately used in the reverse transcription step. In preparation of the reverse transcription step, mix A (table 3A) was prepared and 7.57 μL/well was dispensed in a 96-well plate. After addition of 5 μL of the cell lysates, a five minute denaturation step at 75° C. was performed (table 3B). Afterwards, 7.43 μL of mix B was added (table 3C) and the reverse transcription step was initiated (table 3D) to generate cDNA.
# (§4) Finally, a RT-qPCR mix was prepared, mix C (table 4A), dispensed in 96-well LightCycler qPCR plates to which 3 μL of cDNA was added and the qPCR was performed according to the conditions in table 4B on a LightCycler 480. Using the LightCycler software and an in-house LIMS system, dose response curves for each compound were calculated and the half maximal effective concentration (EC50) and the half maximal cytotoxic concentration (CO50) were determined (Tables 6-9).
# [1] = test system: DENV-1 Djibouti strain D1/H/IMTSSA/98/606; experiment: Tetravalent RT-qPCR assay Protocol B, serotype 1; settings: Dengue virus, DENV1, Vero, 168 h
# Method: as §1
# DENV-2 strain 16681 = experiment: Tetravalent RT-qPCR assay Protocol A, serotype 2; settings: Dengue virus, DENV2, 72 h, RT-qPCR serotype 2 16681, Vero cells, day 3
# Method: as §2, §3, §4
# DENV-1 strain TC974#666 = experiment: Tetravalent RT-qPCR assay Protocol A, serotype 1; settings: Dengue virus, DENV1, 72 h, RT-qPCR serotype 1 TC974#666, Vero cells, day 3
# Method: as §2, §3, §4
# DENV-4 strain EDEN = experiment: Tetravalent RT-qPCR assay Protocol A, serotype 4 EDEN; settings: Dengue virus, DENV4, 72 h, RT-qPCR serotype 4 EDEN, Vero cells, day 3
# Method: as §2, §3, §4
compound,measurement,setting,value
"COc1cc(NC(C(=O)c2c[nH]c3c(F)cc(C)cc23)c2ccc(F)cc2OC)cc(OCCO)c1 (single isomer, unassigned) [Compound 12B, 2-(4-fluoro-2-methoxyphenyl)-1-(7-fluoro-5-methyl-1H-indol-3-yl)-2-((3-(2-hydroxyethoxy)-5-methoxyphenyl)amino)ethanone]",EC50,DENV-2 NGC-Tongalike,1.7 nM
same,EC50,DENV-3 strain H87,270 nM
same,EC50,[1],96 nM
same,EC50,DENV-2 strain 16681,8.1 nM
same,EC50,DENV-1 strain TC974#666,20 nM
same,EC50,DENV-4 strain EDEN,17 nM
